{"source": "patent US20220175777A1", "about": "“Inhibitors of Multidrug Resistance Transporter P-Glycoprotein” (Southern Methodist University, priority 2014, published 2022)", "key": {"[1]": {"molecular_target": "T1, Cysteineless Mouse MDR3 P-glycoprotein (Mus musculus, UniProt P21447, C1070A/C1121A/C1223A/C133A/C427A/C638A/C669A/C713A/C952A)", "T1 construct": "made in house; host or cells: Pichia pastoris", "T1 sequence (P21447 whole entry C133A/C427A/C638A/C669A/C713A/C952A/C1070A/C1121A/C1223A)": "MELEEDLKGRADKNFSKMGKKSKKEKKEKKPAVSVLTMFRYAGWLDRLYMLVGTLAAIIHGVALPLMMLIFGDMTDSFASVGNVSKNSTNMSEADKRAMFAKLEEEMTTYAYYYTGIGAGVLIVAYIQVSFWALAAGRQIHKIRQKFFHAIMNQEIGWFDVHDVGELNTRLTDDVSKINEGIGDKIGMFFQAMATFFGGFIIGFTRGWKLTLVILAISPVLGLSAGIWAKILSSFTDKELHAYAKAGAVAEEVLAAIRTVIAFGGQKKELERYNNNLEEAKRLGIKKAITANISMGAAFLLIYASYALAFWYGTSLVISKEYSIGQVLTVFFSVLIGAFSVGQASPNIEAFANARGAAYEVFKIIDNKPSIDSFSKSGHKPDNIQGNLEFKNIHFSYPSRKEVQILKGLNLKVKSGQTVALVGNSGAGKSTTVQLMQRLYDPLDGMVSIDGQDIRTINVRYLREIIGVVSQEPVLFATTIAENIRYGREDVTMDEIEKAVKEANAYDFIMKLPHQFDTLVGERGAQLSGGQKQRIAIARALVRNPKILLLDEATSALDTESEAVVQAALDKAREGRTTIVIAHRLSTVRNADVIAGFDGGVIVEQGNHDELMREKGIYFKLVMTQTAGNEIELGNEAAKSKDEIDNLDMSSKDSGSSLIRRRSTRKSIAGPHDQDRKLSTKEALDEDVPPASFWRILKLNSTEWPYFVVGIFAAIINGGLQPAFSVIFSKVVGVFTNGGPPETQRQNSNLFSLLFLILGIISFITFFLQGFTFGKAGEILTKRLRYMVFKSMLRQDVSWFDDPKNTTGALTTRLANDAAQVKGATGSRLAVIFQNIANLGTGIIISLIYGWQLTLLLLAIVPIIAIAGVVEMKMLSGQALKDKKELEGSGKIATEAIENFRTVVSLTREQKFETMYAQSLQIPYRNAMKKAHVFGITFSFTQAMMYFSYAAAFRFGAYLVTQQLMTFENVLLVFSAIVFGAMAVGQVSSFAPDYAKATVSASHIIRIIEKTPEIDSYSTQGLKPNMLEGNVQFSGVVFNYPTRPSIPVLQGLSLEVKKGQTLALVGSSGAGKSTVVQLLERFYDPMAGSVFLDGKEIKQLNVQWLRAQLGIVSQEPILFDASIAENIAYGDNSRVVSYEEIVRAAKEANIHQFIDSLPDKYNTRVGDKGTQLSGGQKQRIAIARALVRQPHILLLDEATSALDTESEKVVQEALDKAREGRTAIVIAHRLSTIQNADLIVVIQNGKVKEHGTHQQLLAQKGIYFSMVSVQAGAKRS", "test": "ATP hydrolysis by purified P-glycoprotein, basal and verapamil-stimulated", "type": "biochemical", "summary_of_the_method": "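Cysteine-less mouse MDR3 P-gp (all Cys→Ala), expressed in Pichia pastoris and stabilised with phosphatidyl choline, was pre-incubated with compounds at 37 °C. ATP hydrolysis (2 mM ATP final, 20 min) measured via pyruvate kinase/lactate dehydrogenase-coupled NADH oxidation, with and without verapamil stimulation.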"}, "DU145-TxR": {"tested_on": "DU145-TxR", "test": "Re-sensitization to Paclitaxel or Doxorubicin at 25 μM compound (MTT)", "type": "cell-based, human", "conditions": "48 hours", "description": "FIGS. 3A-3B are plots that show an example of the re-sensitization of a multidrug resistant prostate cancer cell line to two different chemotherapeutics using the prostate cancer derived cell line, DU145 and the multidrug-resistant variant, DU145-TxR. […] Cell viability was measured by the MTT (3-(4,5-dimethylthiazol-2-yl)-2,5-diphenyl tetrazolium bromide assay conducted as described previously. After 48 hours of treatment with Paclitaxel or Doxorubicin alone or in the presence of 25 μM compound 29, 34, or 45 media was removed and cells were washed twice with phosphate buffered saline (PBS) and MTT assay was conducted 24 hours later. Data expressed as mean±SEM."}, "[2]": {"molecular_target": "T1, Cysteineless Mouse MDR3 P-glycoprotein", "conditions": "cited from earlier work"}, "HFL1": {"tested_on": "HFL1", "test": "Intrinsic toxicity, MTT survival", "type": "cell-based", "conditions": "Homo sapiens, 48 hours, ± standard error", "description": "Percent survival determined by MTT assay calculated relative to cells treated with equal volume DMSO vehicle and represent the mean±SEM from 2-4 separate studies, each study performed in triplicate wells.\nThe intrinsic in vitro toxicities of identified compounds were evaluated to determine their potential therapeutic window. This was assessed in a noncancerous cell line (HFL1) and the human prostate cancer cell lines DU145 and the MDR sub-line DU145TxR. The potential toxicity of the compounds were assessed at concentrations that centered around 25 μM."}, "[3]": {"molecular_target": "T1, Cysteineless Mouse MDR3 P-glycoprotein", "test": "SL-ATP binding to P-gp by ESR spectroscopy", "conditions": "50 microM inhibitor compound", "summary_of_the_method": "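Cysteine-free mouse P-gp (30–50 microM) incubated with 50 microM inhibitor, then titrated with spin-labelled ATP analogue SL-ATP. Bound SL-ATP calculated from high-field ESR signal of free SL-ATP versus no-protein control, giving binding stoichiometry and affinity; at least 3 studies on 3–5 P-gp preparations.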"}}, "data": [{"smiles": "Cc1cc(C)c(-c2cc(NC(=O)CSc3n[nH]c(C4CC4)n3)n(-c3ccccc3)n2)cc1C", "note": "[SMU-29, 2-[(5-cyclopropyl-1H-1,2,4-triazol-3-yl)sulfanyl]-N-[2-phenyl-5-(2,4,5-trimethylphenyl)pyrazol-3-yl]acetamide]", "values": [{"measurement": "Effect on stimulated ATPase", "setting": "[1]; in the presence of verapamil", "value": "significantly inhibit"}, {"measurement": "Stimulated ATPase (% of DMSO)", "setting": "[1]; in the presence of verapamil, ± standard deviation", "value": "49 ± 2 % of DMSO"}, {"measurement": "Basal ATPase (% of DMSO)", "setting": "[1]; without added transport substrate, ± standard deviation", "value": "95 ± 11 % of DMSO"}, {"measurement": "Chemotherapeutic sensitivity of MDR cell line (Paclitaxel or Doxorubicin)", "setting": "DU145-TxR", "value": "restores chemotherapeutic sensitivity"}, {"measurement": "Effect on SL-ANP binding", "setting": "[2]; ESR data of Brewer et al. (2014)", "value": "not interfere with ATP binding"}, {"measurement": "Maximum ATP binding mol SL-ANP bound/mol P-gp", "setting": "[2]; in presence of 29, taken from Brewer et al. (2014)", "value": "1.9 ± 0.1^1 mol SL-ANP bound/mol P-gp"}, {"measurement": "IC50", "setting": "HFL1", "value": "48.2 ± 0.01", "unit": "µM"}, {"measurement": "Effect on SL-ATP binding", "setting": "[3]", "value": "decreased the SL-ATP binding affinities"}]}]}
